According to patent US7285554B2, “Pyrazole derivative” (Astellas Pharma Inc., priority 1997, dated 2007):

Test system: IL-2 production from Jurkat cells
Assay: cells
Conditions: Homo sapiens, read-out: IL-2 production inhibition IC50 value

SMILES	IC50 [nM]
Cc1ncsc1C(=O)Nc1ccc(-n2nc(C(F)(F)F)cc2C(F)(F)F)cc1 [Example 1, 4-methyl-4′-[3,5-bis(trifluoromethyl)-1H-pyrazol-1-yl]thiazole-5-carboxyanilide]	≤ 1000
Cn1nc(C(F)(F)F)cc1-c1ccc(C(=O)Nc2ccccc2Cl)s1 [Example 5, 2′-chloro-5-(1-methyl-3-trifluoromethyl-1H-pyrazol-5-yl)thiophene-2-carboxyanilide]	≤ 1000
